Assay results published in article PMC5007466, “VCP recruitment to mitochondria causes mitophagy impairment and neurodegeneration in models of Huntington's disease” (Nature Communications, 2016).
Peptide text beside a SMILES is read from it. * marks the point of attachment. Cbz = O=C(OCc1ccccc1)*

Tests used:
[1] = test system: HdhQ111 / HdhQ7 mouse striatal cells; assay: Mitochondrial membrane potential (TMRM), mouse striatal cells; format: cell-based; settings: HdhQ111 cells, VCP siRNA, three days
Method: (§1) Immortalized striatal cell lines HdhQ111 mutant and HdhQ7 wt cells were obtained from the CHDI Foundation. Cells were cultured in DMEM supplemented with 10% FBS, 100 μg/ml penicillin, 100 μg ml^−1 streptomycin, and 400 μg ml^−1 G418. Cells were grown at 33 °C in a 5% CO2 incubator. Cells within 14 passages were used in all experiments.
(§2) For silencing Htt and VCP in HD striatal cells, control siRNA, mouse Htt and mouse VCP siRNA were purchased from Thermo Fisher Scientific. HdhQ7 and HdhQ111 cells were transfected either with control siRNA, or Htt or VCP siRNA using TransIT-TKO Transfection Reagent (Mirus Bio, LLC), according to the manufacturer's instructions. The sequences for the siRNAs used in this study are as follows: mouse Htt, 5′-[…]-3′; Mouse VCP, 5′-GAGAGCAACCUUCGUAAG-3′; control non-targeting siRNA, 5′-TTCTCCGAACGTGTCACGT-3′.
To determine mitochondrial mass in cultures, cells were stained with antibodies against Tom20 or stained with Mitotracker green. The fluorescent density of Tom20 (1:500) or mitotracker green was quantitated using NIH Image J software. To measure the membrane potential of mitochondria in cultures, cells were incubated with 0.25 μM tetra-methyl rhodamine (Invitrogen Life Science) for 20 min at 37 °C. To determine lysosomal activity, cells were incubated with Lyso-ID Red dye (Enzo Life Science) for 30 min at 37 °C. The images were visualized by microscope and quantitation of the density of red fluorescence was carried out using NIH ImageJ software. For immunocytochemistry study, at least 100 cells per group were counted and quantitated by an observer blind to experimental conditions.

[2] = test system: HdhQ111 mouse striatal cells; assay: Mitochondria-associated LC3 II level; format: cell-based; settings: VCP siRNA, 48 h
Description: as §2
Cells were washed with cold PBS and incubated on ice for 30 min in a lysis buffer (250 mM sucrose, 20 mM HEPES-NaOH, pH 7.5, 10 mM KCl, 1.5 mM MgCl2, 1 mM EDTA, protease inhibitor cocktail and phosphatase inhibitor cocktail). Mouse brains were minced and homogenized in the lysis buffer and then placed on ice for 30 min. Collected cells or tissue were disrupted 20 times by repeated aspiration through a 25-gauge needle, followed by a 30-gauge needle. The homogenates were spun at 800 g for 10 min at 4 °C, and the resulting supernatants were spun at 10,000 g for 20 min at 4 °C. The pellets were washed with lysis buffer and spun at 10,000 g again for 20 min at 4 °C. The final pellets were suspended in lysis buffer containing 1% Triton X-100 and were mitochondrial-rich lysate fractions. […]
(§3) Protein concentrations were determined by Bradford assay. […]

[3] = test system: HdhQ111 / HdhQ7 mouse striatal cells; assay: VCP mitochondrial level, mouse striatal cells (western blot); format: cell-based; settings: HdhQ111 cells, Htt siRNA, 3 days
Method: as §1, §2
Cells were washed with cold PBS and incubated on ice for 30 min in a lysis buffer (250 mM sucrose, 20 mM HEPES-NaOH, pH 7.5, 10 mM KCl, 1.5 mM MgCl2, 1 mM EDTA, protease inhibitor cocktail and phosphatase inhibitor cocktail). Mouse brains were minced and homogenized in the lysis buffer and then placed on ice for 30 min. Collected cells or tissue were disrupted 20 times by repeated aspiration through a 25-gauge needle, followed by a 30-gauge needle. The homogenates were spun at 800 g for 10 min at 4 °C, and the resulting supernatants were spun at 10,000 g for 20 min at 4 °C. The pellets were washed with lysis buffer and spun at 10,000 g again for 20 min at 4 °C. The final pellets were suspended in lysis buffer containing 1% Triton X-100 and were mitochondrial-rich lysate fractions. The supernatant was centrifuged at 100,000 g, 4 °C, for 1 h, the pellets were suspended in lysis buffer containing 1% Triton X-100 as ER fractions. The final supernatant was cytosolic fractions. The mitochondrial proteins VDAC, the ER protein WFS1 and the cytosolic protein Enolase were used as loading controls for mitochondrial, ER and cytosolic fractions, respectively.
as §3

VCP = settings: cited from earlier work
Description: We next ask what specific function VCP mediates on mitochondria from HD models. VCP knock-out is lethal in mice[34].

[4] = test system: Htt or mtHtt protein in HdhQ7 and HdhQ111 cells; assay: Htt/mtHtt protein level (western blot); format: cell-based, mouse; settings: 16 h, n = 3
Method: Protein concentrations were determined by Bradford assay. Protein was resuspended in Laemmli buffer, loaded on SDS–PAGE, and transferred onto nitrocellulose membranes. Membranes were probed with the indicated antibodies, followed by visualization with ECL. Representative blots have been cropped for presentation. Images of full-size blots are presented in Supplementary Fig. 9.
Supplementary Figure 3: Htt and mtHtt are not substrates of VCP . Left: HdhQ7 and HdhQ111 cells were treated with MG132 (10 µM for 16 hours). Protein levels of Htt were determined in the total lysates of the cells. Actin was used as a loading control. The representative blots were from three independent experiments. Right: HdhQ7 and HdhQ111 were treated with Eer I (Eeyarestatin I, 5μ M for 16 hours). Protein levels of Htt were determined. Mcl-1, a mitochondrial Bcl-2 family protein, was used as a positive control. Mcl-1 has been reported to be a substrate of VCP on mitochondria and it is degraded via the ubiquitin-proteasome system. The representative blots were from three independent […]
(1 picture or pasted object on this page, not shown here)

5′-GAGAGCAACCUUCGUAAG-3′ [VCP siRNA, reference compound]
mitochondrial membrane potential [1]: similarly promoted the MMP | mitochondria-associated LC3 II [2]: reduced the levels of mitochondria-associated LC3 II

5′-GGUUUAUGAACUGACUUUGTT-3′ [Htt siRNA, reference compound]
VCP translocation to mitochondria [3]: abolished VCP translocation to mitochondria

CC1(C)C(N(O)C(=O)Nc2ccc(Cl)cc2)N(c2ccc(Cl)cc2)C(=O)N1CC(=O)N/N=C/C=C/c1ccc([N+](=O)[O-])o1 (stereo not drawn) [Eeyarestatin I]
cell death (VCP): rapidly lead to cell death | specificity (VCP): non-specific | Htt or mtHtt protein levels ([4]; Eeyarestatin I 5 μM): did not affect Htt or mtHtt protein levels

CC(C)C[C@@H](C=O)NC(=O)[C@H](CC(C)C)NC(=O)[C@H](CC(C)C)NC(=O)OCc1ccccc1 [MG132] (Cbz-Leu-Leu-Leu-aldehyde)
Htt or mtHtt protein levels ([4]; MG132 10 µM): did not affect Htt or mtHtt protein levels

c1ccc(CNc2nc(NCc3ccccc3)c3ccccc3n2)cc1 [N2,N4-dibenzylquinazoline-2,4-diamine]
cell death (VCP): rapidly lead to cell death | specificity (VCP): non-specific
